Results published in EP1751175B1, “INTERLEUKIN-1 RECEPTOR ANTAGONISTS, COMPOSITIONS, AND METHODS OF TREATMENT” (VALORISATION-RECHERCHE, Société en Commandite, priority 2004, dated 2005).
Where a SMILES comes first, the peptide text is derived from it. Where no end group is shown, it is not given here. [ ]: non-standard residue; d: D form.

Tests used:
rats = experiment: TNBS-induced inflammatory bowel disease model in rats, 48 h: MPO activity, macroscopic score, histologic score (Table 3: 1 no injury to 5 marked denudation); type: in vivo
Protocol: Colon inflammation was induced by intra-rectal/colon administration of the hapten trinitrobenzene sulphonic acid (TNBS) as described in Example 4. Two hours prior to TNBS administration, peptides, peptidomimetics or 0.9% saline were administered intravenously (iv) via the caudal vein (various concentrations of mg/kg/d) (total volume of 0.3ml). […] A third group (control) was not injected with TNBS. For intermittent administration, fifteen minutes after TNBS administration, 101.10 (0.25-1 mg/kg), 101.107 (0.2 mg/kg), 101.113 (0.05-1 mg/kg) were administered by intermittent intraperitoneal injection (ip). Also, these IL-1R antagonists were given twice a day (BID); Remicade® (anti-TNFα) (10 mg/kg) and dexamethasone (0.75 mg/kg) were administered intraperitoneally but only once a day (qd). The intrarectal administration (ir) of 101.10, 101.113 (1 and 2.5 mg/kg), and 5-ASA (50 mg/kg) was done one hour after TNBS administration, and twice a day, except for 5-ASA which is once a day. Finally, 101.10 (1-5 mg/kg) was also administered orally by gavage (po), twice a day. Forty-eight hours after administration of TNBS, rats were killed by CO2 inhalation. Colon was removed and assessed macroscopically (adhesions, ulcerations, discoloration and bleeding) and histologically (neutrophil infiltration, epithelial injury, crypt distortion and ulcerations). One to seven animals per group were studied, according to treatments. Myeloperoxidase (MPO) activity was measured on tissue lysates.
TABLE 3: Histological Injury Scoring System

[1] = test system: IL-1 ß-induced proliferation and PGE2 synthesis; experiment: Structure vs activity summary of Table 4 (proliferation and PGE2 synthesis, not separated); type: cell-based; details: Table 4, derivatives of TTI-101.107
TF-1 cells = molecular target: T1, TF-1 cells (Homo sapiens, UniProt P14778+Q9NPH3); experiment: IL-1ß-induced TF-1 proliferation; type: cell-based; details: Table 5; for Emax: TF-1
T1 sequence (P14778 18-569): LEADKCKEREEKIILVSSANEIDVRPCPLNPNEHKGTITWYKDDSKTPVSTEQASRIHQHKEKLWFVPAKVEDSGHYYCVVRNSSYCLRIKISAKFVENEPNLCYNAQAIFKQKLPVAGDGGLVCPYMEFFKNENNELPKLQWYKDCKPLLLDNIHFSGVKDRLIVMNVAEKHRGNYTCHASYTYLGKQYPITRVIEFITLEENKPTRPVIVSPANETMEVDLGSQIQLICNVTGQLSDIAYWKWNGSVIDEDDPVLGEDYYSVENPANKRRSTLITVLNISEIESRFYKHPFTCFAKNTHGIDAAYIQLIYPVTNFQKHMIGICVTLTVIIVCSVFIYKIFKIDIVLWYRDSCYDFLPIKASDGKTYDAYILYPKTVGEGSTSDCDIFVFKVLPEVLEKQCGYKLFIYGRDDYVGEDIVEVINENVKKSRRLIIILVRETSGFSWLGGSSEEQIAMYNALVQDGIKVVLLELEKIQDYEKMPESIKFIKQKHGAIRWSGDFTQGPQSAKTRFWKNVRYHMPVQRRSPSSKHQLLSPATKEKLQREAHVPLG
T1 sequence (Q9NPH3 21-570): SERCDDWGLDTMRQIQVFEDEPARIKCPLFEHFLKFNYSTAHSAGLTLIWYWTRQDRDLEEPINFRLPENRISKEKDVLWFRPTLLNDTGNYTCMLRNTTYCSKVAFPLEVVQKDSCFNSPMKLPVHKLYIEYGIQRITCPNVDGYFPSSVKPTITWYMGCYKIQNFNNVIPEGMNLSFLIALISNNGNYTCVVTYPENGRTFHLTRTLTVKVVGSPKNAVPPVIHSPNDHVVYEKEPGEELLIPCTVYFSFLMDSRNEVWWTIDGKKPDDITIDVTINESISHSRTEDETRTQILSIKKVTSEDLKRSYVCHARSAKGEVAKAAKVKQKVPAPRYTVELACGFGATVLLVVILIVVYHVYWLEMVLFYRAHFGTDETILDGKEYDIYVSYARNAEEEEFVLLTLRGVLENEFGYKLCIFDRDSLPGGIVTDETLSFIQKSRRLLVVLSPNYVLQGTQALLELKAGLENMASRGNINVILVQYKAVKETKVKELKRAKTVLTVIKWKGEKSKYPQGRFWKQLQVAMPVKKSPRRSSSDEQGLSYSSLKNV

piglet pial vessels = test system: piglet pial vessels; parameters: species or system Yorkshire piglets
Protocol: Ex vivo vasomotor response on brain vessels was performed as described (Li et al., 1996; Hou et al., 2000; Hou et al., 2001; Hou et al., 2003). Brains were removed from Yorkshire piglets. Slices of cortex exposing the pial vessels were pinned to a wax base of a 20 ml bath containing Krebs buffer (pH 7.4) equilibrated with 95% O2, 5% CO2 and maintained at 37°C. Microvessels were visualized and recorded using a video camera mounted on a dissecting microscope. Vascular diameter was measured using a digital image analyzer. Vascular diameter was recorded before and after topical application of pre-constricting agent, U46619 (10^-7 M). After stabilization of preparation, the ligand (IL-1β, 75 ng/ml) was added until stable vasodilation was detected. Peptides were subsequently added at different concentrations from 10^-10 to 10^-5 M. Reversal of vasodilatation was visualized and measured as previously described (Hou, et al. 2000; Hou et al. 2001; Hou et al. 2003); triplicate measurements were conducted on 2 animals.

[2] = intermittent injection (ip), dose 0.75 - qd mg/kg/d
[3] = intrarectal administration, dose 50.0-qd mg/kg/d

activity compared with 101.113, in words (TF-1 cells)	Emax (TF-1 cells)	Compound	other results
		C[C@@H]1C[C@H]2[C@@H]3CCC4=CC(=O)C=C[C@]4(C)[C@@]3(F)[C@@H](O)C[C@]2(C)[C@@]1(O)C(=O)CO [Dexamethasone, dexamethasone]	MPO (% of TNBS+Saline) (rats; [2]): 60 % of TNBS+Saline; histologic evaluation (median score) (rats; [2]): 3; macroscopic (median score) (rats; [2]): 0.87
		XRYTPELA (X=Acetyl) (Ac-[dR][dY][dT][dP][dE][dL][dA]) [API-101.121]	activity of the peptide, in words [1]: completely lost
relatively decreased		CC(C)C[C@@H](NC(=O)[C@@H](CCC(=O)O)NC(=O)[C@H]1CCCN1C(=O)[C@H](NC(=O)[C@@H](Cc1c[nH]c2ccccc12)NC(=O)[C@H](N)CCCNC(=N)N)[C@H](C)O)C(N)=O [API-101.128, RWTPEL]	
		CC(C)C[C@@H](NC(=O)[C@@H](CCC(=O)O)NC(=O)[C@H](NC(=O)[C@H](NC(=O)[C@@H](Cc1ccc(O)cc1)NC(=O)[C@@H](CCCNC(=N)N)NC(=O)[C@H]1CCCN1C(=O)[C@@H](C)N)[C@H](C)O)C(C)C)C(=O)N[C@H](C)C(=O)O [API-101]	IC50 (piglet pial vessels): 182 nM
little or no activity		KYTPEL [API-101.133]	Emax (%) (TF-1 cells): <10%
	63%	CC(C)C[C@@H](NC(=O)[C@@H](CCC(=O)O)NC(=O)[C@H]1CCCN1C(=O)[C@H](NC(=O)[C@@H](Cc1ccc(O)cc1)NC(=O)[C@@H](N)CCCNC(=N)N)[C@H](C)O)C(N)=O [API-101.135, *RYTPEL]	
completely abolished the activity		RFVPELA [API-101.127]	
	70%	CC(C)C[C@@H](NC(=O)[C@@H](CCC(=O)O)NC(=O)[C@H]1CCCN1C(=O)[C@H](NC(=O)[C@@H](Cc1ccc(O)cc1)NC(=O)[C@H](N)CCCNC(=N)N)[C@H](C)O)C(=O)O [API-101.113, RYTPEL]	
		Nc1ccc(O)c(C(=O)O)c1 [5-ASA]	MPO (% of TNBS+Saline) (rats; [3]): 49 % of TNBS+Saline; histologic evaluation (median score) (rats; [3]): 3.3; macroscopic (median score) (rats; [3]): 1.5
relatively decreased	35%	CC(C)C[C@@H](NC(=O)[C@@H](CCC(=O)O)NC(=O)[C@H]1CCCN1C(=O)[C@H](NC(=O)[C@@H](Cc1ccccc1)NC(=O)[C@H](N)CCCNC(=N)N)[C@H](C)O)C(N)=O [API-101.132, RFTPEL] (HELM PEPTIDE1{[dR].[dF].[dT].[dP].[dE].[dL].[am]}$$$$V2.0; N-terminus and C-terminus assumed)	
	10%	CC(C)C[C@@H](NC(=O)[C@@H](CCC(=O)O)NC(=O)[C@H]1CCCN1C(=O)[C@H](NC(=O)[C@@H](Cc1ccc(O)cc1)NC(=O)[C@H](N)CCCNC(N)=O)[C@H](C)O)C(N)=O [API-101.134, XYTPEL (X=Citrulline)]	
	50%	CC(C)[C@@H](NC(=O)[C@@H](CCC(=O)O)NC(=O)[C@H]1CCCN1C(=O)[C@H](NC(=O)[C@@H](Cc1ccc(O)cc1)NC(=O)[C@H](N)CCCNC(=N)N)[C@H](C)O)C(N)=O [API-101.129, RYTPEV]	
little or no activity		XYTPEL (X=Ornithine) [API-101.126]	Emax (%) (TF-1 cells): 0%
